Values after ≈ are worked out from the molar mass of the structure shown. Read-outs that look alike come from different tables or passages of the source.
How the values were obtained:
Ps. aeruginosa [1] = settings: bacterium 4 of Table II (Ps. aeruginosa); from EP 0165375; cited from earlier work
E. coli [2] = settings: bacterium 2 of Table II (E. coli); from EP 0165375; cited from earlier work
Staph. aureus [3] = settings: bacterium 1 of Table II (Staph. aureus); from EP 0165375; cited from earlier work
[4] = Gerster c.s., 25th Intersc. Conf. Antimicrob. Agents and Chemotherapy, 1985; cited from earlier work
Strep. faecalis = assay: Antibacterial activity, MIC and MBC (Table II); type: cell-based; settings: Enterococcus faecalis, assay in duplicate (two lines); for MBC: Minimum Bactericidal Concentration; for MIC: Minimum Inhibitory Concentration
Text: (§1) GBR 23790 is (S)-9-fluoro-3-methyl-10-(4-methyl-1-piperazinyl)-2,3-dihydro-7-oxo-7H-pyrido[1,2,3-de][1,4]-benzothiazine-6-carboxylic acid, which is S-ofloxacin, but with the ring oxygen atom substituted by a ring sulfur atom. • MIC = Minimum Inhibitory Concentration (mg/I) • MBC = Minimum Bactericidal Concentration (mg/I) Each assay has been carried out in duplicate. GBR 23790 in racemic form is known from EP 0165375 (compound (p) in Table I). Its MIC-values, are for bacteria 1, 2 and 4 in the above Table II, resp. 0.78, 0.78 and 50.

Ps. aeruginosa [5] = assay: Antibacterial activity, MIC and MBC (Table II); type: cell-based; settings: assay in duplicate (two lines); for MBC: Minimum Bactericidal Concentration; for MIC: Minimum Inhibitory Concentration
Text: as §1

E. coli [6] = assay: Antibacterial activity, MIC and MBC (Table II); type: cell-based; settings: Escherichia coli, assay in duplicate (two lines); for MBC: Minimum Bactericidal Concentration; for MIC: Minimum Inhibitory Concentration
Text: as §1

Staph. aureus [7] = assay: Antibacterial activity, MIC and MBC (Table II); type: cell-based; settings: Minimum Inhibitory Concentration, assay in duplicate (two lines)
Text: as §1

[8] = Pseudomonas aeruginosa, read-out: MBC

Structure (SMILES)	antibacterial activity in vitro [4]	MBC (Strep. faecalis) [mg/L]	MIC (Strep. faecalis) [mg/L]	MBC (Ps. aeruginosa [5]; [8]) [mg/L]	MIC (Ps. aeruginosa [5]; Pseudomonas aeruginosa) [mg/L]	MBC (E. coli [6]) [mg/L]	MIC (E. coli [6]) [mg/L]	also measured
CC1CSc2c(N3CCN(C)CC3)c(F)cc3c(=O)c(C(=O)O)cn1c23 (racemic) [GBR 23790 in racemic form]	–	–	–	–	–	–	–	MIC-values (Ps. aeruginosa [1]): 50 mg/I; MIC-values (E. coli [2]): 0.78 mg/I; MIC-values (Staph. aureus [3]): 0.78 mg/I
Cc1c(F)cc2c(=O)c(C(=O)O)cn3c2c1CCC3C (single isomer, unassigned) [(R)-(+)-isomer, 6,7-dihydro-5,8-dimethyl-9-fluoro-1-oxo-1 H,5H-benzo[ij]quinolizine-2-carboxylic acid]	much less active	–	–	–	–	–	–	–
Cc1c(F)cc2c(=O)c(C(=O)O)cn3c2c1CC[C@@H]3C [(S)-(-)-isomer of 6,7-dihydro-5,8-dimethyl-9-fluoro-1-oxo-1 ] [6,7-dihydro-5,8-dimethyl-9-fluoro-1-oxo-1 H,5H-benzo[ij]quinolizine-2-carboxylic acid]	potent antibacterial activity	–	–	–	–	–	–	–
C[C@H]1COc2c(N3CCN(C)CC3)c(F)cc3c(=O)c(C(=O)O)cn1c23 [(S)-ofloxacin, (S)-(-)-9-Fluoro-2,3-dihydro-3-methyl-10-(4-methyl-1-piperazinyl)-7-oxo-7H-pyrido[1,2,3-de][i ,4]benzoxazine-6-carboxylic acid]	–	1.25 (≈ 3.46 µM)	1.25 (≈ 3.46 µM)	0.63 (≈ 1.74 µM)	0.63 (≈ 1.74 µM)	0.04 (≈ 0.111 µM)	0.04 (≈ 0.111 µM)	MBC (Ps. aeruginosa [5]): 1.25 mg/I
C[C@H]1CSc2c(N3CCN(C)CC3)c(F)cc3c(=O)c(C(=O)O)cn1c23 [GBR 23790, (S)-9-fluoro-3-methyl-10-(4-methyl-1-piperazinyl)-2,3-dihydro-7-oxo-7H-pyrido[1,2,3-de][1,4]-benzothiazine-6-carboxylic acid]	–	2.5 (≈ 6.62 µM)	1.25 (≈ 3.31 µM)	2.5 (≈ 6.62 µM)	1.25 (≈ 3.31 µM)	0.08 (≈ 0.212 µM)	0.08 (≈ 0.212 µM)	MIC (Staph. aureus [7]): 0.16 mg/I; MIC (Staph. aureus [7]; Staphylococcus aureus, read-out: MIC): 0.08 mg/L (≈ 0.212 µM)
